Reference: patent US8349850B2, “Heterocyclic compounds and uses thereof in the treatment of sexual disorders” (ATIR Holding S.A., priority 2006, dated 2013)

Columns and labels:
D4.4 receptor = target: T1, D4.4 receptor (Homo sapiens, UniProt P21917); assay: Competitive binding to D4.4 dopamine receptor ([3H]-YM-09151-2 radioligand); settings: 5 mcM compound; human recombinant D4.4 in CHO cells; na = no activity
T1 construct: expressed in transfected cells; host or cells: CHO cells
T1 sequence (P21917 1-419): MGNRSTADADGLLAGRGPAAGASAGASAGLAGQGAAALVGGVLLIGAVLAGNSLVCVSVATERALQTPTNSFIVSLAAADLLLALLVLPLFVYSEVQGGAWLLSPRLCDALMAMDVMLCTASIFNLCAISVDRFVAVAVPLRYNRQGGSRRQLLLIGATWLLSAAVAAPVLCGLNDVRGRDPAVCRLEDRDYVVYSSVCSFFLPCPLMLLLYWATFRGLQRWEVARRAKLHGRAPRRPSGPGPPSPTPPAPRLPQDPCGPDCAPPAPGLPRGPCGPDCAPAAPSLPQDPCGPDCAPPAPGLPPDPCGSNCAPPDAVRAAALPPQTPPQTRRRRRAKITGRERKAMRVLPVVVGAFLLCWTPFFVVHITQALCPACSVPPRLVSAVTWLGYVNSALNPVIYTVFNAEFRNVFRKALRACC
Experimental: Compounds were assayed for competitive binding to D2 SHORT and D4.4 type dopamine receptors. Both receptor types are expressed as human recombinant proteins in CHO cells, as described, for example, in Jarvis et al. (1973); Van Tol et al. (1991) and Van Tol et al. (1992).
Determination of binding to D4.4 receptor was performed using [^3H]-YM-09151-2 (70-87 Ci/mmol, 0.3 nM), as a radioligand, in with the presence of various concentrations of the tested compound. Reactions were carried out in 50 mM TRIS-HCl (pH 7.4) containing 5 mM MgCl2, 5 mM EDTA, 5 mM KCl and 1.5 mM CaCl2, for 60 minutes at 22° C. The reaction was terminated by rapid vacuum filtration onto glass fiber filters. Radioactivity trapped onto the filters was determined (counted) and compared to control values in order to accurately evaluate any interaction of the tested compound(s) with the cloned dopamine D4.4 binding site.

[1] = target: T2, PDE5 partially purified from human platelets (Homo sapiens, UniProt O76074); assay: Phosphodiesterase Type 5 (PDE5) Inhibition; assay type: biochemical; settings: for IC50 / PDE5 IC50, 10^−6 M: 'active' = observed activity not quantitated; for IC50: read-out: PDE5 IC50, 10^−6 M
T2 construct: PDE5 partially purified from human platelets was used; from tissue; host or cells: human platelets
Experimental: Phosphodiesterase type 5 (PDE5) catalyzes the conversion of cAMP or cGMP to their respective monophosphate forms. PDE5 has a high Km for cAMP and a low Km for cGMP, is insensitive to Ca^2+/calmodulin or cGMP regulation, and is relatively sensitive to inhibitors such as dipyridamol and zaprinast.
PDE5 partially purified from human platelets was used. The tested compound (at a concentration of 0.1, 1, 20 or 50 μM) and/or vehicle was incubated with 3.5 μg enzyme and 1 μM cGMP containing 0.01 μM [^3H]cGMP in Tris buffer pH 7.5 for 20 minutes at 30° C. Since enzyme activity may change from lot to lot, the concentration used was adjusted if required.
The reaction was terminated by boiling the reaction mixture for 2 minutes. The obtained GMP was then converted to guanosine by addition of 10 mg/ml snake venom nucleotidase and further incubation at 30° C. for 10 minutes. Unhydrolyzed cGMP was bound to AG1-X2 resin, and remaining [^3H]Guanosine in the aqueous phase was quantitated by scintillation counting.

SMILES | inhibition at 5 µM (D4.4 receptor) | inhibition at 50 µM ([1]; 50 mcM compound, 1 μM cGMP) | further results
O=c1[nH]c(CN2CCCC(c3ccccn3)C2)nc2ccccc12 (centres unmarked) [Compound B-83, 2-((3-(pyridin-2-yl)piperidin-1-yl)methyl)quinazolin-4(3H)-one] | 57% |  | 
COc1ccccc1C1=CCN(Cc2nc3cc(Cl)ccc3c(=O)[nH]2)CC1 [Compound B-39, 7-chloro-2-((5,6-dihydro-4-(2-methoxyphenyl)pyridin-1(2H)-yl)methyl)quinazolin-4(3H)-one] | 95% |  | 
O=c1c2ccccc2nc(CN2CCN(c3ncccn3)CC2)n1Cc1ccccc1 [Compound B-75, 3-benzyl-2-((4-(pyrimidin-2-yl)piperazin-1-yl)methyl)quinazolin-4(3H)-one] |  | 73% | IC50 [1]: 21 µM
O=c1[nH]c(CN2CC=C(c3ccccn3)CC2)nc2ccccc12 [Compound 115, 2-(3′,6′-dihydro-2,4′-bipyridin-1′(2′H)-ylmethyl)quinazolin-4(3H)-one] | 66% |  | 
O=c1[nH]c(CN2CC=C(c3ccccc3)CC2)nc2cc(Cl)ccc12 [Compound B-47, 7-chloro-2-((5,6-dihydro-4-phenylpyridin-1(2H)-yl)methyl)quinazolin-4(3H)-one] | 63% |  | 
O=c1[nH]c2ccccc2nc1CN1CC=C(c2ccccc2)CC1 [Compound B-42, 3-((5,6-dihydro-4-phenylpyridin-1(2H)-yl)methyl)quinoxalin-2(1H)-one] | 62% |  | 
O=c1[nH]c(CN2CCN(c3cccc(O)c3)CC2)nc2cc(Cl)ccc12 [Compound B-3] |  |  | D4.4(h) Competitive Binding, % at 5 mcM (D4.4 receptor): 82%
O=c1[nH]c(CN2CCN(c3ccccn3)CC2)nc2nc[nH]c12 [Compound 409, 2-((4-(pyridin-2-yl)piperazin-1-yl)methyl)-1H-purin-6(7H)-one] | 8% | 24% | PDE5 IC50, 10^−6 M [1]: active
O=c1[nH]c(CN2CCN(c3ncccn3)CC2)nc2nc[nH]c12 [Compound 408, 2-((4-(pyrimidin-2-yl)piperazin-1-yl)methyl)-1H-purin-6(7H)-one] | 33% | 32% | PDE5 IC50, 10^−6 M [1]: active
COc1ccccc1C1=CCN(Cc2nc3ccccc3c(=O)[nH]2)CC1 [Compound B-31, 2-((5,6-dihydro-4-(2-methoxyphenyl)pyridin-1(2H)-yl)methyl)quinazolin-4(3H)-one] | 74% |  | 
O=c1[nH]c(CN2CC=C(c3ccccn3)CC2)nc2cc(Cl)ccc12 [Compound B-71, 7-chloro-2-((5,6-dihydro-4-(pyridin-2-yl)pyridin-1(2H)-yl)methyl)quinazolin-4(3H)-one] |  | 63% | IC50 [1]: 27 µM
O=c1[nH]c(CN2CCC=C(c3ccccn3)C2)nc2ccccc12 [Compound B-82, 2-((5,6-dihydro-3-(pyridin-2-yl)pyridin-1(2H)-yl)methyl)quinazolin-4(3H)-one] | 12% |  | PDE5 % inhibition at 50 mcM ([1]; 50 mcM compound, 1 μM cGMP): Problems with solubility; PDE5 IC50, 10^−6 M [1]: Problems with solubility
CCn1c(=O)c2[nH]c(CN3CC=C(c4ccccc4)CC3)nc2n(CC)c1=O [Xan2] | 25% |  | 
CCOc1cccnc1N1CCN(Cc2nc3cc(Cl)ccc3c(=O)[nH]2)CC1 [Compound B-43, 7-chloro-2-((4-(3-ethoxypyridin-2-yl)piperazin-1-yl)methyl)quinazolin-4(3H)-one] |  | 26% | PDE5 IC50, 10^−6 M [1]: active

The next lines start with results.

inhibition at 5 µM (D4.4 receptor) | inhibition at 50 µM ([1]; 50 mcM compound, 1 μM cGMP) | SMILES | further results
70% | 62% | O=c1[nH]c(CN2CCN(c3ncccn3)CC2)nc2cc(Cl)ccc12 [Compound B-72, 7-chloro-2-((4-(pyrimidin-2-yl)piperazin-1-yl)methyl)quinazolin-4(3H)-one] | IC50 [1]: 2 µM; exhibit both PDE5 inhibition and D4 agonist activity (dual activity) ([1]; referring to Table 2 (PDE5 and D4 assays)): both PDE5 inhibition and D4 agonist activity
62% |  | O=c1[nH]c2ccccc2nc1CN1CCN(c2cccc(O)c2)CC1 [Compound B-37, 3-((4-(3-hydroxyphenyl)piperazin-1-yl)methyl)quinoxalin-2(1H)-one] | 
60% | 40% | O=c1[nH]c(CN2CCN(c3ncccc3OCc3ccccc3)CC2)nc2ccccc12 [Compound B-10, 2-((4-(3-(benzyloxy)pyridin-2-yl)piperazin-1-yl)methyl)quinazolin-4(3H)-one] | PDE5 IC50, 10^−6 M [1]: active
29% |  | O=c1[nH]c2ccccc2nc1CN1CCN(c2ncccn2)CC1 [Compound B-44, 3-((4-(pyrimidin-2-yl)piperazin-1-yl)methyl)quinoxalin-2(1H)-one] | 
89% | 47% | Cc1cccc2nc(CN3CCN(c4cccc(O)c4)CC3)[nH]c(=O)c12 [Compound B-9, 2-((4-(3-hydroxyphenyl)piperazin-1-yl)methyl)-5-methylquinazolin-4(3H)-one] | PDE5 IC50, 10^−6 M [1]: active
82% |  | O=c1[nH]c(CN2CCN(c3cccc(O)c3)CC2)nc2cccc(F)c12 [Compound B-36, 5-fluoro-2-((4-(3-hydroxyphenyl)piperazin-1-yl)methyl)quinazolin-4(3H)-one] | 
84% |  | N#Cc1ccccc1N1CCN(Cc2nc3ccccc3[nH]c2=O)CC1 [Compound B-34, 2-(4-((1,2-dihydro-2-oxoquinoxalin-3-yl)methyl)piperazin-1-yl)benzonitrile] | 
65% |  | COc1ccccc1N1CCN(Cc2nc3cc(Cl)ccc3c(=O)[nH]2)CC1 [Compound B-38, 7-chloro-2-((4-(2-methoxyphenyl)piperazin-1-yl)methyl)quinazolin-4(3H)-one] | 
86% |  | CCOc1cccnc1N1CCN(Cc2nc3ccccc3c(=O)[nH]2)CC1 [Compound B-13, 2-((4-(3-ethoxypyridin-2-yl)piperazin-1-yl)methyl)quinazolin-4(3H)-one] | 
54% |  | CCn1c(=O)c2[nH]c(CN3CCN(c4cccc(O)c4)CC3)nc2n(CC)c1=O [Xan1, 1,3-diethyl-8-((4-(3-hydroxyphenyl)piperazin-1-yl)methyl)-1H-purine-2,6(3H,7H)-dione] | 
88% |  | O=c1[nH]c(CN2CCC(c3ccccc3)CC2)nc2ccccc12 [Compound B-51, 2-((4-phenylpiperidin-1-yl)methyl)quinazolin-4(3H)-one] | 
 | 29% | O=c1[nH]c(CN2CCN(c3ccccn3)CC2)nc2ccccc12 [Compound 102, 2-[(4-pyridin-2-ylpiperazin-1-yl)methyl]quinazolin-4(3H)-one] | PDE5 IC50, 10^−6 M [1]: active
46% |  | CCOc1ccccc1N1CCN(Cc2nc3cc(Cl)ccc3c(=O)[nH]2)CC1 [Compound B-45, 7-chloro-2-((4-(2-ethoxyphenyl)piperazin-1-yl)methyl)quinazolin-4(3H)-one] | 
13% | 61% | O=c1[nH]c(CN2CCN(c3ncccn3)CC2)nc2ccccc12 [Compound 123, 2-[(4-pyrimidin-2-ylpiperazin-1-yl)methyl]quinazolin-4(3H)-one] | IC50 [1]: 26 µM
90% | 28% | O=c1[nH]c(CN2CCN(c3cccc(O)c3)CC2)nc2cc(Cl)ccc12 [Compound B-8, 7-chloro-2-((4-(3-hydroxyphenyl)piperazin-1-yl)methyl)quinazolin-4(3H)-one] | PDE5 IC50, 10^−6 M [1]: active
18% | 68% | O=c1[nH]c(CN2CCN(c3nccs3)CC2)nc2ccccc12 [Compound B-11, 2-((4-(thiazol-2-yl)piperazin-1-yl)methyl)quinazolin-4(3H)-one] | IC50 [1]: 2 µM
91% | 25% | COc1cc2nc(CN3CCN(c4cccc(O)c4)CC3)[nH]c(=O)c2cc1OC [Compound B-4, 2-((4-(3-hydroxyphenyl)piperazin-1-yl)methyl)-6,7-dimethoxyquinazolin-4(3H)-one] | PDE5 IC50, 10^−6 M [1]: active
